Reference: paper PMC5863483, “Low HLA binding of diabetes-associated CD8+ T-cell epitopes is increased by post translational modifications” (BMC Immunology, 2018)
Like-named read-outs stand apart in the source and are kept apart here. *1 amine or outer side, *2 acyl side, *3 side chain or, on linkers, in order; H or OH if unused. Where a SMILES comes first, the peptide text is derived from it. [ ]: non-standard residue; d: D form. Tyr(3-Cl) = N[C@@H](Cc1ccc(O)c(Cl)c1)C(=O)O; γGlu = O=C(O)[C@H](CCC(=O)[*:2])N[*:1]; βAsp = O=C(O)[C@H](CC(=O)[*:2])N[*:1]; Cya = N[C@@H](CS(=O)(=O)O)C(=O)O; Cit = NC(=O)NCCC[C@H](N)C(=O)O

Biological target: HLA-A*02:01 (Homo sapiens, UniProt P04439, D140Y/D185E/D98H/E176V/E277Q/G131W/G231S/I119V/I121R/I166T/I218V/L300P/L318F/N151K/N90K/P208A/P217A/Q86G/Q94H/R138H/R169H/T345S)
Test: HLA-peptide competition binding assay, A*02:01
[1] = post-translationally modified insulin peptide, competition binding assay, a dash indicates IC50 >40,000 nM, read-out: A*02:01 binding (IC50 nM) Modified
[2] = read-out: A*02:01 binding (IC50 nM) Modified

| Compound | IC50 [1] | further results |
| --- | --- | --- |
| CC(C)C[C@H](NC(=O)[C@H](C)NC(=O)[C@H](CCC(=O)O)NC(=O)[C@@H](NC(=O)[C@H](CC(C)C)NC(=O)[C@H](Cc1c[nH]cn1)NC(=O)[C@H](CO)NC(=O)CNC(=O)[C@H](CS(=O)(=O)O)NC(=O)[C@@H](N)CC(C)C)C(C)C)C(=O)O [LBGSHLVEAL] (H-L[Cya]GSHLVEAL-OH; N-terminus and C-terminus assumed) | > 40000 nM | – |
| CC(C)C[C@H](NC(=O)[C@H](Cc1c[nH]cn1)NC(=O)[C@H](CO)NC(=O)CNC(=O)[C@H](CS(=O)(=O)O)NC(=O)[C@@H](N)CC(C)C)C(=O)N[C@H](C(=O)N[C@@H](CCC(=O)O)C(=O)N[C@@H](C)C(=O)O)C(C)C [LBGSHLVEA] (H-L[Cya]GSHLVEA-OH) | – | IC50 [2]: 14800 nM |
| CC(C)C[C@H](N)C(=O)N[C@H](C(=O)N[C@@H](CS(=O)(=O)O)C(=O)NCC(=O)N[C@@H](CCC(=O)O)C(=O)N[C@@H](CCCNC(=N)N)C(=O)NCC(=O)N[C@@H](Cc1ccc(O)cc1)C(=O)N[C@@H](Cc1ccc(O)cc1)C(=O)N[C@@H](Cc1ccc(O)cc1)C(=O)O)C(C)C [LVBGERGYYY] (H-LV[Cya]GERGYYY-OH; N-terminus and C-terminus assumed) | > 40000 nM | – |
| CC(C)C[C@H](N)C(=O)N[C@H](C(=O)N[C@@H](CS(=O)(=O)O)C(=O)NCC(=O)N[C@@H](CCC(=O)O)C(=O)N[C@@H](CCCNC(=N)N)C(=O)NCC(=O)N[C@@H](Cc1ccc(O)cc1)C(=O)N[C@@H](Cc1ccc(O)cc1)C(=O)O)C(C)C [LVBGERGYY] (H-LV[Cya]GERGYY-OH; N-terminus and C-terminus assumed) | > 40000 nM | – |
| CC(C)C[C@H](NC(=O)[C@H](Cc1ccc(O)cc1)NC(=O)[C@@H](N)CC(C)C)C(=O)N[C@H](C(=O)N[C@@H](CS(=O)(=O)O)C(=O)NCC(=O)N[C@@H](CCC(=O)O)C(=O)N[C@@H](CCCNC(=N)N)C(=O)NCC(=O)N[C@@H](Cc1ccc(O)cc1)C(=O)O)C(C)C [LYLVBGERGY] (H-LYLV[Cya]GERGY-OH) | – | IC50 [2]: 35500 nM |
| CSCC[C@H](N)C(=O)N[C@@H](CCCNC(N)=O)C(=O)N[C@@H](CC(C)C)C(=O)N[C@@H](CC(C)C)C(=O)N1CCC[C@H]1C(=O)N[C@@H](CC(C)C)C(=O)N[C@@H](CC(C)C)C(=O)N[C@@H](C)C(=O)N[C@@H](CC(C)C)C(=O)O [MULLPLLAL] (H-M[Cit]LLPLLAL-OH) | – | IC50 [2]: 1860 nM |
| CC(C)C[C@H](NC(=O)[C@H](Cc1c[nH]cn1)NC(=O)[C@H](CCC(N)=O)NC(=O)[C@@H](N)CC(N)=O)C(=O)N[C@@H](CS(=O)(=O)O)C(=O)NCC(=O)N[C@@H](CO)C(=O)N[C@@H](Cc1c[nH]cn1)C(=O)N[C@@H](CC(C)C)C(=O)N[C@H](C(=O)O)C(C)C [NQHLBGSHLV] (H-NQHL[Cya]GSHLV-OH; N-terminus and C-terminus assumed) | > 40000 nM | – |
| CC(C)C[C@H](NC(=O)[C@H](Cc1c[nH]cn1)NC(=O)[C@H](CO)NC(=O)CNC(=O)[C@H](CS(=O)(=O)O)NC(=O)[C@H](CC(C)C)NC(=O)[C@H](Cc1c[nH]cn1)NC(=O)[C@H](CCC(N)=O)NC(=O)[C@@H](N)CC(N)=O)C(=O)O [NQHLBGSHL] (H-NQHL[Cya]GSHL-OH; N-terminus and C-terminus assumed) | > 40000 nM | – |
| CC(C)C[C@H](NC(=O)[C@H](Cc1c[nH]cn1)NC(=O)CC[C@H](NC(=O)C[C@H](N)C(=O)O)C(=O)O)C(=O)N[C@@H](CS)C(=O)NCC(=O)N[C@@H](CO)C(=O)N[C@@H](Cc1c[nH]cn1)C(=O)N[C@@H](CC(C)C)C(=O)N[C@H](C(=O)O)C(C)C [OZHLCGSHLV] ({βAsp-γGlu}-HLCGSHLV-OH; N-terminus and C-terminus assumed) | > 40000 nM | – |
| CC(C)C[C@H](NC(=O)[C@H](Cc1c[nH]cn1)NC(=O)[C@H](CO)NC(=O)CNC(=O)[C@H](CS)NC(=O)[C@H](CC(C)C)NC(=O)[C@H](Cc1c[nH]cn1)NC(=O)CC[C@H](NC(=O)C[C@H](N)C(=O)O)C(=O)O)C(=O)O [OZHLCGSHL] ({βAsp-γGlu}-HLCGSHL-OH; N-terminus and C-terminus assumed) | > 40000 nM | – |
| C[C@H](NC(=O)[C@H](CCC(=O)O)NC(=O)[C@H](CCCNC(N)=O)NC(=O)[C@H](CCCNC(N)=O)NC(=O)[C@@H](NC(=O)[C@H](CCCCN)NC(=O)[C@@H]1CCCN1)[C@@H](C)O)C(=O)N[C@@H](CCC(=O)O)C(=O)N[C@@H](CC(=O)O)C(=O)O [PKTUUEAED] (H-PKT[Cit][Cit]EAED-OH; N-terminus and C-terminus assumed) | > 40000 nM | – |
| CC(C)C[C@H](NC(=O)[C@H](Cc1c[nH]cn1)NC(=O)[C@@H](N)CCC(N)=O)C(=O)N[C@@H](CS(=O)(=O)O)C(=O)NCC(=O)N[C@@H](CO)C(=O)N[C@@H](Cc1c[nH]cn1)C(=O)N[C@@H](CC(C)C)C(=O)N[C@H](C(=O)N[C@@H](CCC(=O)O)C(=O)O)C(C)C [QHLBGSHLVE] (H-QHL[Cya]GSHLVE-OH; N-terminus and C-terminus assumed) | > 40000 nM | – |
| CC(C)C[C@H](NC(=O)[C@H](Cc1c[nH]cn1)NC(=O)[C@@H](N)CCC(N)=O)C(=O)N[C@@H](CS(=O)(=O)O)C(=O)NCC(=O)N[C@@H](CO)C(=O)N[C@@H](Cc1c[nH]cn1)C(=O)N[C@@H](CC(C)C)C(=O)N[C@H](C(=O)O)C(C)C [QHLBGSHLV] (H-QHL[Cya]GSHLV-OH) | – | IC50 [2]: 37900 nM |
| CC(C)C[C@H](NC(=O)[C@H](C)NC(=O)[C@H](CCC(=O)O)NC(=O)[C@@H](NC(=O)[C@H](CC(C)C)NC(=O)[C@H](Cc1c[nH]cn1)NC(=O)[C@@H](N)CO)C(C)C)C(=O)N[C@@H](Cc1ccc(O)c(Cl)c1)C(=O)N[C@@H](CC(C)C)C(=O)N[C@H](C(=O)O)C(C)C [SHLVEALJLV] (H-SHLVEAL[Tyr(3-Cl)]LV-OH) | – | Fold increase (increase of A*02:01 binding of the modified peptide compared to the WT peptide): 2.02 fold |
| CC[C@H](C)[C@H](NC(=O)CNC(=O)[C@H](CCCNC(N)=O)NC(=O)[C@H](CCCCN)NC(=O)[C@H](CCC(N)=O)NC(=O)[C@H](CC(C)C)NC(=O)[C@@H](N)CO)C(=O)N[C@H](C(=O)N[C@@H](CCC(=O)O)C(=O)O)C(C)C [SLQKUGIVE] (H-SLQK[Cit]GIVE-OH; N-terminus and C-terminus assumed) | > 40000 nM | – |
| C[C@H](NC(=O)[C@H](CCC(=O)O)NC(=O)[C@H](CCCNC(N)=O)NC(=O)[C@H](CCCNC(N)=O)NC(=O)[C@@H](NC(=O)[C@H](CCCCN)NC(=O)[C@@H]1CCCN1C(=O)[C@@H](N)[C@@H](C)O)[C@@H](C)O)C(=O)N[C@@H](CCC(=O)O)C(=O)N[C@@H](CC(=O)O)C(=O)O [TPKTUUEAED] (H-TPKT[Cit][Cit]EAED-OH; N-terminus and C-terminus assumed) | > 40000 nM | – |
| CC(C)[C@H](N)C(=O)N[C@@H](CS(=O)(=O)O)C(=O)NCC(=O)N[C@@H](CCC(=O)O)C(=O)N[C@@H](CCCNC(=N)N)C(=O)NCC(=O)N[C@@H](Cc1ccc(O)cc1)C(=O)N[C@@H](Cc1ccc(O)cc1)C(=O)N[C@@H](Cc1ccc(O)cc1)C(=O)N[C@H](C(=O)O)[C@@H](C)O [VBGERGYYYT] (H-V[Cya]GERGYYYT-OH; N-terminus and C-terminus assumed) | > 40000 nM | – |
| CC(C)[C@H](N)C(=O)N[C@@H](CS(=O)(=O)O)C(=O)NCC(=O)N[C@@H](CCC(=O)O)C(=O)N[C@@H](CCCNC(=N)N)C(=O)NCC(=O)N[C@@H](Cc1ccc(O)cc1)C(=O)N[C@@H](Cc1ccc(O)cc1)C(=O)N[C@@H](Cc1ccc(O)cc1)C(=O)O [VBGERGYYY] (H-V[Cya]GERGYYY-OH; N-terminus and C-terminus assumed) | > 40000 nM | – |
| CC(C)C[C@H](NC(=O)[C@H](Cc1c[nH]cn1)NC(=O)[C@H](CO)NC(=O)CNC(=O)[C@H](CS(=O)(=O)O)NC(=O)[C@H](CC(C)C)NC(=O)[C@H](Cc1c[nH]cn1)NC(=O)[C@H](CCC(N)=O)NC(=O)[C@H](CC(N)=O)NC(=O)[C@@H](N)C(C)C)C(=O)O [VNQHLBGSHL] (H-VNQHL[Cya]GSHL-OH; N-terminus and C-terminus assumed) | > 40000 nM | – |
| CC(C)C[C@H](NC(=O)[C@H](Cc1c[nH]cn1)NC(=O)[C@H](CCC(N)=O)NC(=O)[C@H](CC(N)=O)NC(=O)[C@@H](N)C(C)C)C(=O)N[C@@H](CS(=O)(=O)O)C(=O)NCC(=O)N[C@@H](CO)C(=O)N[C@@H](Cc1c[nH]cn1)C(=O)O [VNQHLBGSH] (H-VNQHL[Cya]GSH-OH; N-terminus and C-terminus assumed) | > 40000 nM | – |
| CC(C)C[C@H](NC(=O)[C@H](Cc1c[nH]cn1)NC(=O)[C@H](CO)NC(=O)CNC(=O)[C@H](CS)NC(=O)[C@H](CC(C)C)NC(=O)[C@H](Cc1c[nH]cn1)NC(=O)CC[C@H](NC(=O)C[C@H](NC(=O)[C@@H](N)C(C)C)C(=O)O)C(=O)O)C(=O)O [VOZHLCGSHL] (H-V[βAsp][γGlu]HLCGSHL-OH; N-terminus and C-terminus assumed) | > 40000 nM | – |
| CC(C)C[C@H](NC(=O)[C@H](Cc1c[nH]cn1)NC(=O)CC[C@H](NC(=O)C[C@H](NC(=O)[C@@H](N)C(C)C)C(=O)O)C(=O)O)C(=O)N[C@@H](CS)C(=O)NCC(=O)N[C@@H](CO)C(=O)N[C@@H](Cc1c[nH]cn1)C(=O)O [VOZHLCGSH] (H-V[βAsp][γGlu]HLCGSH-OH; N-terminus and C-terminus assumed) | > 40000 nM | – |
| CSCC[C@H](NC(=O)[C@@H](N)Cc1c[nH]c2ccccc12)C(=O)N[C@@H](CCCNC(N)=O)C(=O)N[C@@H](CC(C)C)C(=O)N[C@@H](CC(C)C)C(=O)N1CCC[C@H]1C(=O)N[C@@H](CC(C)C)C(=O)N[C@@H](CC(C)C)C(=O)N[C@@H](C)C(=O)N[C@@H](CC(C)C)C(=O)O [WMULLPLLAL] (H-WM[Cit]LLPLLAL-OH) | – | IC50: 310 nM |
| CC(C)C[C@H](NC(=O)[C@@H](N)Cc1ccc(O)cc1)C(=O)N[C@H](C(=O)N[C@@H](CS(=O)(=O)O)C(=O)NCC(=O)N[C@@H](CCC(=O)O)C(=O)N[C@@H](CCCNC(=N)N)C(=O)NCC(=O)N[C@@H](Cc1ccc(O)cc1)C(=O)N[C@@H](Cc1ccc(O)cc1)C(=O)O)C(C)C [YLVBGERGYY] (H-YLV[Cya]GERGYY-OH) | – | IC50 [2]: 2420 nM |
